Laboratory results: PMC3463139 (Journal of medicinal chemistry, 2012)
Where two headings read alike, the source gives them in different places. One block for each compound: values may come before it.

Columns and labels:
[1] = biological target: rat A1AR; settings: read-out: Kd at rat A1AR; cited from earlier work
[2] = biological target: T1, hA3AR (Homo sapiens, UniProt P0DMS8); test: Radioligand binding at hA3AR; settings: replacement of 2-Cl with 2-H
T1 sequence (P0DMS8 1-318): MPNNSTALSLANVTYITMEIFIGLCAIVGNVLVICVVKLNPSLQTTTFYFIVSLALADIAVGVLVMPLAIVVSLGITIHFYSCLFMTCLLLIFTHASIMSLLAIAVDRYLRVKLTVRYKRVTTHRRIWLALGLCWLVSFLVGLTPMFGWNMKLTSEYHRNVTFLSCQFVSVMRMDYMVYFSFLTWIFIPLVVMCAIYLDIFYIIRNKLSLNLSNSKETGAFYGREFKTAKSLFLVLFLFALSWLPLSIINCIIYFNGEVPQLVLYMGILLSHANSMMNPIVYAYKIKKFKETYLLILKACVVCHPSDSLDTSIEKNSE

[3] = biological target: T2, hA1AR (Homo sapiens, UniProt P30542); test: Radioligand binding at hA1AR; settings: for AR subtype selectivity in binding (in words): A1, A2A and A3 ARs compared
T2 sequence (P30542 1-326): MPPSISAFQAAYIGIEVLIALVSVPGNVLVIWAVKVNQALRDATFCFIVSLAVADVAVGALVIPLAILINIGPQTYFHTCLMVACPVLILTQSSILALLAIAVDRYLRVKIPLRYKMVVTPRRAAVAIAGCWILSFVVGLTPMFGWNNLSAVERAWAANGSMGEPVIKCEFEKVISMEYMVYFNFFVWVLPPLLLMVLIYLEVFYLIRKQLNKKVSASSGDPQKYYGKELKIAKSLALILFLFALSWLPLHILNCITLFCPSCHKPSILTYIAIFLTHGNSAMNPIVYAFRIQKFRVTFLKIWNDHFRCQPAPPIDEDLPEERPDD

[4] = biological target: T2, hA1AR; type: cell-based; settings: for Agonist efficacy at A1AR (in words): cyclic AMP assay, 10 μM
[5] = in vivo; settings: male, CF No 1 albino, mouse, ip
[6] = system: mice; test: Subcutaneous metrazol; type: in vivo; settings: for scMET model, number of animals protected from convulsions: qualitative
[7] = system: mice; test: Maximal electroshock; type: in vivo; settings: for MES model, number of animals protected from convulsions: qualitative
[8] = system: mice; test: 6 Hz minimal clonic seizure test; type: in vivo
[9] = biological target: T2, hA1AR; settings: at 10 μM; relative to 44a (100%); ref Tosh et al.[20] or Gao et al. [21]; cited from earlier work
[10] = system: mice; test: Corneal kindled mouse model of partial seizures; type: in vivo; settings: i.p.

Increase of affinity at the A3AR relative to compound 10 [2]: 28 fold
Structure (SMILES): O[C@@H]1[C@H](O)[C@@H]2C[C@@H]2[C@H]1n1cnc2c(NC(C3CC3)C3CC3)ncnc21 [Compound 37a]

AR subtype selectivity in binding (in words) [3]: nonselective
Structure (SMILES): O[C@@H]1[C@H](O)[C@@H]2C[C@@H]2[C@H]1n1cnc2c(NCC(C3CC3)C3CC3)nc(Cl)nc21 [Compound 7, (1R,2R,3S,4R,5S)-4-(2-Chloro-6-(2,2-dicyclopropylethylamino)-9H-purin-9-yl)bicyclo[3.1.0]hexane-2,3-diol]

AR subtype selectivity in binding (in words) [3]: moderately selective for the A1AR
Structure (SMILES): CC(C)[C@@H](Nc1nc(Cl)nc2c1ncn2[C@H]1[C@H](O)[C@H](O)[C@@H]2C[C@@H]21)C1CC1 [Compound 14, (1R,2R,3S,4R,5S)-4-(2-Chloro-6-((R)-1-cyclopropyl-2-methyl-propylamino)-9H-purin-9-yl)bicyclo[3.1.0]hexane-2,3-diol]

AR subtype selectivity in binding (in words) [3]: moderately selective for the A1AR
Structure (SMILES): CC(C)[C@H](Nc1nc(Cl)nc2c1ncn2[C@H]1[C@H](O)[C@H](O)[C@@H]2C[C@@H]21)C1CC1 [Compound 15, (1R,2R,3S,4R,5S)-4-(2-Chloro-6-((S)-1-cyclopropyl-2-methyl-propylamino)-9H-purin-9-yl)bicyclo[3.1.0]hexane-2,3-diol]

AR subtype selectivity in binding (in words) [3]: weak nonselective
Structure (SMILES): COC(=O)c1cnn(-c2nc(NC(C3CC3)C3CC3)c3ncn([C@H]4[C@H](O)[C@H](O)[C@@H]5C[C@@H]54)c3n2)c1 [Compound 42]

AR subtype selectivity in binding (in words) [3]: weak nonselective
Structure (SMILES): O=C(O)c1cnn(-c2nc(NC(C3CC3)C3CC3)c3ncn([C@H]4[C@H](O)[C@H](O)[C@@H]5C[C@@H]54)c3n2)c1 [Compound 43]

AR subtype selectivity in binding (in words) [3]: nonselective
Structure (SMILES): NNc1nc(NC(C2CC2)C2CC2)c2ncn([C@H]3[C@H](O)[C@H](O)[C@@H]4C[C@@H]43)c2n1 [Compound 40]

inhibition at 10 µM ([3]; read-out: % inhibition of radioligand binding, A1, at 10 μM, [3H]R-PIA, CHO cells): < 50%
Structure (SMILES): O[C@@H]1[C@H](O)[C@@H]2C[C@@H]2[C@H]1n1cnc2c(NC(C3CCCC3)C3CCCC3)nc(Cl)nc21 [Compound 11, (1R,2R,3S,4R,5S)-4-(2-Chloro-6-(dicyclopentylmethylamino)-9H-purin-9-yl)bicyclo[3.1.0]hexane-2,3-diol]

Agonist efficacy at A1AR (in words) [4]: full agonist
Structure (SMILES): O[C@@H]1[C@H](O)[C@@H]2C[C@@H]2[C@H]1n1cnc2c(NC(C3CC3)C3CC3)nc(Cl)nc21 [Compound 10]
6 Hz model, animals protected ([8]; 30 mg/kg i.p. (highest dose tested)): 7 out of 8
6 Hz model, mice protected ([8]; […] i.p.): 4 out of 8
Response in 6 Hz model (in words) ([8]; mice, i.p.): active
scMET model, number of animals protected from convulsions ([6]; 3 mg/kg i.p.): No protection (3 mg/kg)
Response in scMET model (in words) ([6]; i.p.): inactive
% Inhibition, cyclic AMP, A1 (maximal efficacy) [9]: 80–100%
Corneal kindled mouse model EC50 (±SE) ([10]; at 1 h post injection): 1.79 ± 0.71 mg/kg
Response in corneal kindling model (in words) ([10]; mice): active
MES model, number of animals protected from convulsions ([7]; 3 mg/kg i.p.): 1 out of 4 (3 mg/kg)
Response in MES model (in words) ([7]; i.p.): inactive

The remaining lines, values behind:

Structure (SMILES): C[C@H](CSc1nc2ccccc2s1)Nc1nc(Cl)nc2c1ncn2[C@@H]1O[C@H](CO)[C@@H](O)[C@H]1O [NNC-21-0136, N^6-[R-(2-benzothiazolyl)thio-2-propyl]-2-chloroadenosine]
Kd [1]: 1.16 nM

Structure (SMILES): O[C@@H]1[C@H](O)[C@@H]2C[C@@H]2[C@H]1n1cnc2c(N[C@@H](c3ccccc3)C3CC3)nc(Cl)nc21 [Compound 20, (1R,2R,3S,4R,5S)-4-(2-Chloro-6-((R)-cyclopropylphenylmethylamino)-9H-purin-9-yl)bicyclo[3.1.0]hexane-2,3-diol]
AR subtype selectivity in binding (in words) [3]: bound weakly at the three ARs
Agonist efficacy at A1AR (in words) [4]: did not activate the A1AR

Structure (SMILES): O[C@@H]1[C@H](O)[C@@H]2C[C@@H]2[C@H]1n1cnc2c(N[C@H](c3ccccc3)C3CC3)nc(Cl)nc21 [Compound 21, (1R,2R,3S,4R,5S)-4-(2-Chloro-6-((S)-cyclopropylphenylmethylamino)-9H-purin-9-yl)bicyclo[3.1.0]hexane-2,3-diol]
AR subtype selectivity in binding (in words) [3]: bound weakly at the three ARs

Structure (SMILES): OC[C@H]1O[C@@H](n2cnc3c(NC4CCCC4)nc(Cl)nc32)[C@H](O)[C@@H]1O [Compound 44b, 2-chloro-N^6-cyclopentyladenosine, reference compound]
TD50 at 1 h [5]: 0.84 mg/kg
scMET model, number of animals protected from convulsions ([6]; 1 mg/kg i.p.): 1 out of 4 (1 mg/kg)
MES model, number of animals protected from convulsions ([7]; 1 mg/kg i.p.): 1 out of 4 at (1 mg/kg)

Structure (SMILES): CCNC(=O)[C@H]1O[C@@H](n2cnc3c(N)ncnc32)[C@H](O)[C@@H]1O [Compound 45, 5′-N-ethylcarboxamidoadenosine, reference compound]
% Inhibition, cyclic AMP, A1 (maximal efficacy) ([4]; at 10 μM, relative to effect (100%) of full agonist 44a at 10 μM, CHO cells, n = 3–5): 100±15%
Agonist efficacy at A1AR (in words) [4]: full agonist

Structure (SMILES): NCCNC(=O)Cc1ccc(NC(=O)Cc2ccc(Nc3ncnc4c3ncn4[C@@H]3O[C@H](CO)[C@@H](O)[C@H]3O)cc2)cc1 [Compound 46, N^6-[4-[[[4-[[[(2-Aminoethyl)amino]carbonyl]methyl]anilino]carbonyl]methyl]phenyl]adenosine, reference compound]
scMET model, number of animals protected from convulsions ([6]; 1 mg/kg i.p.): 5 out of 8 (1 mg/kg)
MES model, number of animals protected from convulsions ([7]; 2 mg/kg i.p.): 4 out of 8 (2mg/kg)
